Experimental data published in patent US6586000B2, “Hydroxide-releasing agents as skin permeation enhancers” (Dermatrends, Inc., priority 1999, dated 2003).

Assay: In vitro permeation of oxytocin solution through NaOH-pretreated skin, Franz-type diffusion cells
Format: in vitro ADME, human
Procedure: (§1) The volume of receiver solution was 8 ml. […] Eighteen diffusion cells were used in this study. A 2% NaOH aqueous solution (50 μl) was introduced to the donor chambers of nine cells (cells #1 to 9) and a 4% NaOH aqueous solution (50 μl) was introduced to the donor chambers of the other nine cells (cells #10 to 18). Once the NaOH solution is applied, the donor chamber was covered with parafilm.
After 5 hours, the NaOH solution was washed away from the skin for 3 cells (cells #1 to 3) that were treated with 2% NaOH solution and 3 cells (cells #10 to 12) that were treated with 4% NaOH solution. […] After 24 hours, the NaOH solution was washed away from the skin for 3 cells (cells #7 to 9) that were treated with 2% NaOH solution and 3 cells (cells #16 to 18) that were treated with 4% NaOH solution. To wash away the NaOH solution, the receiving fluid was removed and replaced with fresh DI water. This was done twice. DI water was added to the donor chamber to dilute the NaOH solution and then the donor solution was removed. This was repeated several times.
After the NaOH solution was washed away from the skin, the solution in the donor chamber was completely removed and replaced by 50 μl of an oxytocin solution. Once the oxytocin solution is applied, the donor chamber was covered with parafilm.
The cells were filled with DI water as a receiver solution. The DI water had been degased to remove air bubbles. […] The samples taken were analyzed by HPLC for the concentration of oxytocin in the receiver solution. The cumulative amount of oxytocin across human cadaver skin was calculated using the measured oxytocin concentrations in the receiver solutions for each time point, which were listed in Table 46.
as §1, with “0.25%” for “2%”, “A 1.0%” for “a 4%”
After 5 hours, the NaOH solution was washed away from the skin for 3 cells (cells #1 to 3) that were treated with […] and 3 cells (cells #10 to 12) that were treated with 1.0% NaOH solution. After 11 hours, the NaOH solution was washed away from the skin for 3 cells (cells #4 to 6) that were treated with 0.25% NaOH solution and 3 cells (cells #13 to 15) that were treated with 1.0% NaOH solution. After 24 hours, the NaOH solution was washed away from the skin for 3 cells (cells #7 to 9) that were treated with 0.25% NaOH solution and 3 cells (cells #16 to 18) that were treated with 1.0% NaOH solution. To wash away the NaOH solution, the receiving fluid was removed and replaced with fresh DI water. This was done twice. DI water was added to the donor chamber to dilute the NaOH solution and then the donor solution was removed. This was repeated several times until the pH of donor solution was less than 8.
The cells were filled with DI water as a receiver solution. The DI water has been degased to remove air bubbles. […] The cumulative amount of oxytocin across human cadaver skin was calculated using the measured oxytocin concentrations in the receiver solutions for each time point, which were listed in Table 48.

Cumulative Amount of Oxytocin Permeated Across Human Cadaver Skin (skin pretreated by 1.0% NaOH for 5 hr, 4.25 hours): 0.45 μg/cm^2
Cumulative Amount of Oxytocin Permeated Across Human Cadaver Skin (skin pretreated by 1.0% NaOH for 5 hr, 24 hours): 0.97 μg/cm^2
Cumulative Amount of Oxytocin Permeated Across Human Cadaver Skin (skin pretreated by 1.0% NaOH for 5 hr, […]): 0.97 μg/cm^2
Cumulative Amount of Oxytocin Permeated Across Human Cadaver Skin (skin pretreated by 1.0% NaOH for 11 hr, 4.25 hours): 53.42 μg/cm^2
Cumulative Amount of Oxytocin Permeated Across Human Cadaver Skin (skin pretreated by 1.0% NaOH for 11 hr, 24 hours): 75.36 μg/cm^2
Cumulative Amount of Oxytocin Permeated Across Human Cadaver Skin (skin pretreated by 1.0% NaOH for 11 hr, […]): 67.97 μg/cm^2
Cumulative Amount of Oxytocin Permeated Across Human Cadaver Skin (skin pretreated by 1.0% NaOH for 24 hr, 4.25 hours): 13.23 μg/cm^2
Cumulative Amount of Oxytocin Permeated Across Human Cadaver Skin (skin pretreated by 1.0% NaOH for 24 hr, 24 hours): 30.97 μg/cm^2
Cumulative Amount of Oxytocin Permeated Across Human Cadaver Skin (skin pretreated by 1.0% NaOH for 24 hr, […]): 21.06 μg/cm^2
Cumulative Amount of Oxytocin Permeated Across Human Cadaver Skin (skin pretreated by 4% NaOH for 5 hr, 5 hours): 118.95 μg/cm^2
Cumulative Amount of Oxytocin Permeated Across Human Cadaver Skin (skin pretreated by 4% NaOH for 5 hr, 15 hours): 200.66 μg/cm^2
Cumulative Amount of Oxytocin Permeated Across Human Cadaver Skin (skin pretreated by 4% NaOH for 5 hr, 24 hours): 225.52 μg/cm^2
Cumulative Amount of Oxytocin Permeated Across Human Cadaver Skin (skin pretreated by 4% NaOH for 15 hr, 5 hours): 202.28 μg/cm^2
Cumulative Amount of Oxytocin Permeated Across Human Cadaver Skin (skin pretreated by 4% NaOH for 15 hr, 15 hours): 222.45 μg/cm^2
Cumulative Amount of Oxytocin Permeated Across Human Cadaver Skin (skin pretreated by 4% NaOH for 15 hr, 24 hours): 231.58 μg/cm^2
Cumulative Amount of Oxytocin Permeated Across Human Cadaver Skin (skin pretreated by 4% NaOH for 24 hr, 5 hours): 193.82 μg/cm^2
Cumulative Amount of Oxytocin Permeated Across Human Cadaver Skin (skin pretreated by 4% NaOH for 24 hr, 15 hours): 232.72 μg/cm^2
Cumulative Amount of Oxytocin Permeated Across Human Cadaver Skin (skin pretreated by 4% NaOH for 24 hr, 24 hours): 236.80 μg/cm^2
SMILES: CC[C@H](C)[C@@H]1NC(=O)[C@H](Cc2ccc(O)cc2)NC(=O)[C@@H](N)CSSC[C@@H](C(=O)N2CCC[C@H]2C(=O)N[C@@H](CC(C)C)C(=O)NCC(N)=O)NC(=O)[C@H](CC(N)=O)NC(=O)[C@H](CCC(N)=O)NC1=O [Oxytocin, oxytocin]
